{
  "source": "patent US6369042B1",
  "about": "“Antioxidative vitamin B6 analogs” (priority 1999, dated 2002)",
  "test_system": "Rhinovirus infection",
  "test": "Treatment of a rhinovirus infection (common cold) in a patient",
  "assay_type": "in vivo, human",
  "conditions": "50 mg orally in a water solution, after 15 minutes",
  "method": "A patient with a common katarrhalic infection (common cold) was treated orally with 50 mg of (2RS,4R)-2-[3-Hydroxy-5-(hydroxymethyl)-2-methyl-4-pyridinyl]-4-thiazolidine carboxylic acid in a water solution. After 15 minutes the disease symptoms disappeared.",
  "data": [
    {"smiles": "Cc1ncc(CO)c(C2N[C@H](C(=O)O)CS2)c1O", "note": "(mixture of isomers) [(2RS,4R)-2-[3-Hydroxy-5-(hydroxymethyl)-2-methyl-4-pyridinyl]-4-thiazolidine carboxylic acid]", "values": [
      {"measurement": "disease symptoms of common katarrhalic infection (common cold)", "result": "disappeared"}
    ]}
  ]
}
